Assay results as given in patent US8415289B2, “Bacterial-derived BLIS for treatment of acne” (The Trustees of the University of Pennsylvania, priority 2005, dated 2013).

Test system: S. salivarius
Test: Etest MIC susceptibility of clinical S. salivarius isolates to antibiotics
Type: cell-based, Streptococcus salivarius
Experimental: The dorsum of the tongue was swabbed and the specimen collected using a BBL CultureSwab Collection and Transport System (Difco, Detroit, Mich.). The sterile cotton stick was drawn across the dorsum of the tongue 10-12 times while maintaining pressure. Swabs were stored at 4° C. for no more than 24 h. Cultures were diluted 10 and 100-fold using Tryptic Soy Broth (Difco, Detroit, Mich.), and diluted cultures directly inoculated on mitis-salivarius agar (Difco, Detroit, Mich.) using sterile technique. Plates were incubated upside down at 37° C. in 5% carbon dioxide for 24 h. Colonies were screened by morphology consistent with S. salivarius (large, soft, fluffy colonies due to levan production from the sucrose in the agar). This is the standard method used to screen for S. salivarius (24;24). All samples identified based on visual morphology were frozen and stored for subsequent testing (BLIS assays and resistance testing).
Colonies identified as S. salivarius by morphology were tested for susceptibility to clindamycin, erythromycin and tetracycline using the Etest MIC method. Etest strips were purchased from AB Biodisk (Piscataway, N.J., USA), and were used in accordance with the manufacturer's instructions. The concentration gradient of each antimicrobial agent on the Etest strips was 0.016-256 ug/ml. MICs were read directly from the test strip where the zone of inhibition intersected the MIC scale on the strip. Zones of inhibition were compared with standard values (NCCLS M100-S10) to assign a designation of “susceptible,” “intermediate”, or “resistant” to each antimicrobial agent.
Secondarily, determination was made as to whether the S. salivarius recovered was resistant to clindamycin, erythromycin, and tetracycline. Chi-squared analyses were performed to detect a difference among Groups Ia, Ib, and II. We further stratified the acne patients into those receiving oral and/or topical antibiotics, and no antibiotics. These findings were represented as simple percentages, allowing for qualitative comparisons among these groups. […] This accounts for the discrepancy between the numerators in Table 2 and the denominators in Table 3.

[1] = Group II: no acne, no antibiotics, 15 isolates, NCCLS M100-S10
[2] = Group Ia: acne, using antibiotics, 13 isolates, NCCLS M100-S10
[3] = Group Ib: acne, not using antibiotics, 5 isolates, NCCLS M100-S10

SMILES | Proportion of antibiotic-resistant Streptococcus salivarius in the oropharynx [1] | Proportion of antibiotic-resistant Streptococcus salivarius in the oropharynx (Group II: no acne, no antibiotics, 15 isolates, NCCLS M100-S10, listed as clindamycin) [%] | Proportion of antibiotic-resistant Streptococcus salivarius in the oropharynx [2] | Proportion of antibiotic-resistant Streptococcus salivarius in the oropharynx (Group Ia: acne, using antibiotics, 13 isolates, NCCLS M100-S10, listed as clindamycin) [%] | Proportion of antibiotic-resistant Streptococcus salivarius in the oropharynx [3] | Proportion of antibiotic-resistant Streptococcus salivarius in the oropharynx (Group Ib: acne, not using antibiotics, 5 isolates, NCCLS M100-S10, listed as clindamycin) [%] | Proportion of antibiotic-resistant Streptococcus salivarius in the oropharynx (Group II: no acne, no antibiotics, 15 isolates, NCCLS M100-S10, listed as erythromycin) [%] | Proportion of antibiotic-resistant Streptococcus salivarius in the oropharynx (Group Ia: acne, using antibiotics, 13 isolates, NCCLS M100-S10, listed as erythromycin) [%] | Proportion of antibiotic-resistant Streptococcus salivarius in the oropharynx (Group Ib: acne, not using antibiotics, 5 isolates, NCCLS M100-S10, listed as erythromycin) [%] | Proportion of antibiotic-resistant Streptococcus salivarius in the oropharynx (Group II: no acne, no antibiotics, 15 isolates, NCCLS M100-S10, listed as tetracycline) [%] | Proportion of antibiotic-resistant Streptococcus salivarius in the oropharynx (Group Ia: acne, using antibiotics, 13 isolates, NCCLS M100-S10, listed as tetracycline) [%] | Proportion of antibiotic-resistant Streptococcus salivarius in the oropharynx (Group Ib: acne, not using antibiotics, 5 isolates, NCCLS M100-S10, listed as tetracycline) [%]
CCC[C@@H]1C[C@@H](C(=O)N[C@@H]([C@H]2O[C@H](SC)[C@H](O)[C@@H](O)[C@H]2O)[C@H](C)Cl)N(C)C1 [Clindamycin, clindamycin] | 1/15 (7%) | 7 | 9/13 (69%) | 69 | 1/5 (20%) | 20 | – | – | – | – | – | –
CC[C@H]1OC(=O)[C@H](C)[C@@H](O[C@H]2C[C@@](C)(OC)[C@@H](O)[C@H](C)O2)[C@H](C)[C@@H](O[C@@H]2O[C@H](C)C[C@H](N(C)C)[C@H]2O)[C@](C)(O)C[C@@H](C)C(=O)[C@H](C)[C@@H](O)[C@]1(C)O [Erythromycin, erythromycin] | 3/15 (20%) | – | 9/13 (69%) | – | 2/5 (40%) | – | 20 | 69 | 40 | – | – | –
CN(C)[C@@H]1C(O)=C(C(N)=O)C(=O)[C@@]2(O)C(O)=C3C(=O)c4c(O)cccc4[C@@](C)(O)[C@H]3C[C@@H]12 [Tetracycline, tetracycline] | 4/15 (27%) | – | 10/13 (77%) | – | 2/5 (40%) | – | – | – | – | 27 | 77 | 40
